Like-named read-outs stand apart in the source and are kept apart here.
Tests used:
[1] = target: T1, Drosophila OR47a (Drosophila melanogaster, UniProt P81921); test: Calcium ion fluorescence (GCaMP6) assay, OR47a stable HEK293 cell line; type: cell-based; conditions: for OR47a response (VUAA1-normalized) at 1 μM / OR47a response (VUAA1-normalized) at 10 μM / OR47a response (VUAA1-normalized) at 100 μM / Average response: OR47a cell line; for Average response: mean of biological replicates
T1 construct: expressed in transfected cells
T1 sequence (P81921 1-385): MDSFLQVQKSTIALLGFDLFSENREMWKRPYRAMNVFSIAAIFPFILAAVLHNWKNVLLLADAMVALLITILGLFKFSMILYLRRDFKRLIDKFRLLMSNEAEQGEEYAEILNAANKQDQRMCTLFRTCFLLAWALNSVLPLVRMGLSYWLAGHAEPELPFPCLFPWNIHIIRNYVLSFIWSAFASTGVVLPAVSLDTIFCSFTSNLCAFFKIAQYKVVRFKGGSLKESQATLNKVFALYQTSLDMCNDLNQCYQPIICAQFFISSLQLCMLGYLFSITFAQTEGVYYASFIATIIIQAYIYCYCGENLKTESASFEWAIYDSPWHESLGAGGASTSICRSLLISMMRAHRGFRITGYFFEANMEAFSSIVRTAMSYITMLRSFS
T1 sequence (Q9VNB5 1-486 partner): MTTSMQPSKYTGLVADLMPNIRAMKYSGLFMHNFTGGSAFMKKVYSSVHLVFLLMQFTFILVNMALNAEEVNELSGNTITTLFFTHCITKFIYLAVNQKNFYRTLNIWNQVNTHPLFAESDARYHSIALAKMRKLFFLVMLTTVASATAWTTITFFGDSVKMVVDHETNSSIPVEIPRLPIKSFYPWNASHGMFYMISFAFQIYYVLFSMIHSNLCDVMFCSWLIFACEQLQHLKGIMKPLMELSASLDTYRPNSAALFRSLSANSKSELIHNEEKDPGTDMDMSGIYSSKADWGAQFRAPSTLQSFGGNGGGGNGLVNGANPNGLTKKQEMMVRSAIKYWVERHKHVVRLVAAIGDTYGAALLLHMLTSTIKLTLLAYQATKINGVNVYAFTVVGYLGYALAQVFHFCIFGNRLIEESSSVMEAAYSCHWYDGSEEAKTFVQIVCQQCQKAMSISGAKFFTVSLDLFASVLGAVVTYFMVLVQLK
In short: (§1)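 Responses are VUAA1-normalized ΔF: each VOC-evoked calcium signal, (FMAX−F0)/F0 over 30 s after injection, divided by the same line's mean 50 µM VUAA1 response. Cells were doxycycline-induced HEK293 with GCaMP6 and the cognate Drosophila OR, in HEPES buffer pH 7.3; ligands tested 0.01–100 μM.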

[2] = target: T2, Drosophila OR98a (Drosophila melanogaster, UniProt Q9VAZ3); test: Calcium ion fluorescence (GCaMP6) assay, OR98a stable HEK293 cell line; type: cell-based; conditions: for OR98a response (VUAA1-normalized) at 1 μM / OR98a response (VUAA1-normalized) at 10 μM / OR98a response (VUAA1-normalized) at 100 μM / Average response: OR98a cell line; for Average response: average of biological replicates, fraction of VUAA1 response; for OR98a Average response (VUAA1-normalized): 50 μM VUAA1 = 1
T2 construct: expressed in transfected cells
T2 sequence (Q9VAZ3 1-397): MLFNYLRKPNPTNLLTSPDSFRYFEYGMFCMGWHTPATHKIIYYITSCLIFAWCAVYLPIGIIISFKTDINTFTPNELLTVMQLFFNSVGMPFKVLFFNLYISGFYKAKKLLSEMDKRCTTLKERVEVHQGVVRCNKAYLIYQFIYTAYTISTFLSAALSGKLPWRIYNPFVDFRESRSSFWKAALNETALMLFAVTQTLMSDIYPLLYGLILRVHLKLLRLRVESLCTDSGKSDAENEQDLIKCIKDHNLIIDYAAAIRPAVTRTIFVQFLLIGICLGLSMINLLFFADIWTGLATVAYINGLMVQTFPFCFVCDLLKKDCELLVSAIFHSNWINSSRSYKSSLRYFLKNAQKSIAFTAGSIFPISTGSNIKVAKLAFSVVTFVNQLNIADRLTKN
T2 sequence (Q9VNB5 1-486 partner): T1 sequence (Q9VNB5 1-486 partner)
In short: as §1

[3] = ligand concentration 1 (unit not given), threshold 0.05, below shown as 0
[4] = ligand concentration 10 (unit not given), threshold 0.05, below shown as 0
[5] = ligand concentration 100 (unit not given), threshold 0.05, below shown as 0
[6] = HEK293, read-out: Average response
[7] = concentration 1, normalized fluorescence change, values below 0.05 threshold given as 0
[8] = concentration 10, normalized fluorescence change, values below 0.05 threshold given as 0
[9] = concentration 100, normalized fluorescence change, values below 0.05 threshold given as 0
[10] = HEK293, read-out: OR47a response (VUAA1-normalized response)
[11] = HEK293, read-out: OR98a response (VUAA1-normalized response)
[12] = HEK293, read-out: OR47a Average response (VUAA1-normalized)
[13] = ligand concentration 1 (unit not given), 0.05 threshold, values below shown as 0
[14] = ligand concentration 10 (unit not given), 0.05 threshold, values below shown as 0
[15] = ligand concentration 100 (unit not given), 0.05 threshold, values below shown as 0
[16] = HEK293, read-out: OR98a Average response (VUAA1-normalized)

Row | Compound | Average response ([1]; odorant cc. 1 µM) | Average response ([1]; odorant cc. 10 µM) | Average response ([1]; odorant cc. 100 µM) | DF norm AVERAGE OR47a [1, 3] | DF norm AVERAGE OR47a [1, 4] | DF norm AVERAGE OR47a [1, 5] | activation at 1 µM [2, 6] [%] | activation at 10 µM [2, 6] [%] | activation at 100 µM [2, 6] [%] | DF norm AVERAGE OR98a [2, 3] | DF norm AVERAGE OR98a [2, 4] | DF norm AVERAGE OR98a [2, 5] | OR47a response (VUAA1-normalized response) ([1]; VOC concentration 1 μM) | OR47a response (VUAA1-normalized response) ([1]; VOC concentration 10 μM) | OR47a response (VUAA1-normalized response) ([1]; VOC concentration 100 μM) | OR98a response (VUAA1-normalized response) ([2]; VOC concentration 1 μM) | OR98a response (VUAA1-normalized response) ([2]; VOC concentration 10 μM) | OR98a response (VUAA1-normalized response) ([2]; VOC concentration 100 μM) | Average response ([2]; cc. 1 µM) | Average response ([2]; cc. 10 µM) | also measured
1 | Cc1ccc(C(C)C)cc1 [p-cymene] | 0.00 | 0.00 | 0.00 | 0 | 0 | 0 | 0 | 4 | 3.65 | 0 | 0 | 0 | – | – | – | – | – | – | – | – | OR47a response (VUAA1-normalized) at 1 μM ([1]; VOC concentration 1 μM): 0.00; OR47a response (VUAA1-normalized) at 10 μM ([1]; VOC concentration 10 μM): 0.00; OR47a response (VUAA1-normalized) at 100 μM ([1]; VOC concentration 100 μM): 0.00; OR98a response (VUAA1-normalized) at 1 μM ([2]; VOC concentration 1 μM): 0.00; OR98a response (VUAA1-normalized) at 10 μM ([2]; VOC concentration 10 μM): 0.00; OR98a response (VUAA1-normalized) at 100 μM ([2]; VOC concentration 100 μM): 0.00
2 | CC/C=C\CCO [E-3-hexenol] | – | – | – | – | – | – | – | – | – | – | – | – | 0.06 | 0.00 | 0.14 | 0.00 | 0.00 | 0.00 | – | – | –
3 | CC/C=C\CCO [Z-3-hexenol] | – | – | – | – | – | – | – | – | – | – | – | – | – | – | – | – | – | – | – | – | OR47a response (VUAA1-normalized) at 1 μM ([1]; VOC concentration 1 μM): 0.00; OR47a response (VUAA1-normalized) at 10 μM ([1]; VOC concentration 10 μM): 0.0571; OR47a response (VUAA1-normalized) at 100 μM ([1]; VOC concentration 100 μM): 0.10; OR98a response (VUAA1-normalized) at 1 μM ([2]; VOC concentration 1 μM): 0.00; OR98a response (VUAA1-normalized) at 10 μM ([2]; VOC concentration 10 μM): 0.17; OR98a response (VUAA1-normalized) at 100 μM ([2]; VOC concentration 100 μM): 0.11
4 | C=C(C)[C@H]1CC=C(C)CC1 [limonene] | 0.0214 | 0.00 | 0.00 | 0 | 0 | 0 | – | – | – | 0 | 0 | 0 | 0.00 | 0.00 | 0.00 | 0.00 | 0.00 | 0.00 | 0.00 | 0.02 | Average response ([2]; cc. 100 µM): 0.0268
5 | CC(C)=CCC/C(C)=C/CC/C(C)=C/CO [e,e-farnesol] | 0.03 | 0.00 | 0.032 | 0 | 0 | 0 | – | – | – | 0 | 0.07127 | 0.09839 | 0.00 | 0.00 | 0.00 | 0.00 | 0.07 | 0.10 | 0.017 | 0.07 | OR98a Average response (VUAA1-normalized) ([2]; 1 μM VOC): 0.02; OR98a Average response (VUAA1-normalized) ([2]; 10 μM VOC): 0.07; OR98a Average response (VUAA1-normalized) ([2]; 100 μM VOC): 0.10; Average response ([2]; cc. 100 µM): 0.10
6 | C=C(C)C1CCC2(C)OC2C1 (single isomer, unassigned; (+)) [(+)-limonene oxide] | 0.00 | 0.00 | 0.00 | – | – | – | – | – | – | – | – | – | 0.00 | 0.00 | 0.00 | 0.00 | 0.00 | 0.00 | 0.00 | 0.00 | DF norm AVERAGE OR47a [1, 7]: 0; DF norm AVERAGE OR47a [1, 8]: 0; DF norm AVERAGE OR47a [1, 9]: 0; Average response ([2]; cc. 100 µM): 0.00; DF norm AVERAGE OR98a [2, 7]: 0; DF norm AVERAGE OR98a [2, 8]: 0; DF norm AVERAGE OR98a [2, 9]: 0
7 | CC1=CCC2CC1C2(C)C (stereo not drawn) [alpha-pinene] | 0.04 | 0.00 | 0.0468 | 0 | 0 | 0 | 0 | 0 | 0 | 0 | 0 | 0 | – | – | – | – | – | – | – | – | activation at 1 µM [1, 10]: 0%; activation at 10 µM [1, 10]: 0%; activation at 100 µM [1, 10]: 0%; activation at 1 µM [2, 11]: 0%; activation at 10 µM [2, 11]: 0%; activation at 100 µM [2, 11]: 0%
8 | C=C1[C@H]2CC[C@@H]3[C@H]2C(C)(C)CCC[C@]13C [(+)-longifolene] | 0.00 | 0.00 | 0.0238 | – | – | – | – | – | – | – | – | – | 0.00 | 0.00 | 0.00 | 0.00 | 0.13 | 0.00 | 0.0106 | 0.13 | DF norm AVERAGE OR47a [1, 7]: 0; DF norm AVERAGE OR47a [1, 8]: 0; DF norm AVERAGE OR47a [1, 9]: 0; Average response ([2]; cc. 100 µM): 0.0176; DF norm AVERAGE OR98a [2, 7]: 0; DF norm AVERAGE OR98a [2, 8]: 0.1258; DF norm AVERAGE OR98a [2, 9]: 0
9 | C=C1CCC2CC1C2(C)C (stereo not drawn) [beta-pinene] | 0.00 | 0.00 | 0.00 | 0 | 0 | 0 | 19 | 17 | 1.89 | 0.1942 | 0.1655 | 0 | – | – | – | – | – | – | – | – | activation at 1 µM [1, 10]: 0%; activation at 10 µM [1, 10]: 0%; activation at 100 µM [1, 10]: 0%; activation at 1 µM [2, 11]: 19%; activation at 10 µM [2, 11]: 17%; activation at 100 µM [2, 11]: 0%
10 | CC/C=C\CCOC(C)=O [z3-hexenyl acetate] | 0.35 | 0.67 | 0.76 | – | – | – | 0 | 1.43 | 10 | – | – | – | – | – | – | – | – | – | – | – | activation at 1 µM [1, 12]: 35%; activation at 10 µM [1, 12]: 67%; activation at 100 µM [1, 12]: 76%; DF norm AVERAGE OR47a [1, 13]: 0.3542; DF norm AVERAGE OR47a [1, 14]: 0.669; DF norm AVERAGE OR47a [1, 15]: 0.7586; activation at 1 µM [2, 16]: 0%; activation at 10 µM [2, 16]: 1%; activation at 100 µM [2, 16]: 10%; DF norm AVERAGE OR98a [2, 13]: 0; DF norm AVERAGE OR98a [2, 14]: 0; DF norm AVERAGE OR98a [2, 15]: 0.1048
